Assay results published in ChEMBL document CHEMBL4715885, “Novel dual LSD1/HDAC6 inhibitors for the treatment of multiple myeloma” (Bioorg Med Chem Lett, 2021).
The source made the active and inactive calls. The calls are words filed in the database; no cut-off is given here.

Columns and labels:
[1] = biological target: T1, Lysine-specific histone demethylase 1A (Homo sapiens, UniProt O60341); test: Inhibition of LSD1 (unknown origin)
[2] = biological target: T2, Protein deacetylase HDAC6 (Homo sapiens, UniProt Q9UBN7); test: Inhibition of human HDAC6 (unknown origin) using RHKKAc as substrate by fluorescence method; conditions: read-out: IC50
T2 sequence (Q9UBN7 whole entry): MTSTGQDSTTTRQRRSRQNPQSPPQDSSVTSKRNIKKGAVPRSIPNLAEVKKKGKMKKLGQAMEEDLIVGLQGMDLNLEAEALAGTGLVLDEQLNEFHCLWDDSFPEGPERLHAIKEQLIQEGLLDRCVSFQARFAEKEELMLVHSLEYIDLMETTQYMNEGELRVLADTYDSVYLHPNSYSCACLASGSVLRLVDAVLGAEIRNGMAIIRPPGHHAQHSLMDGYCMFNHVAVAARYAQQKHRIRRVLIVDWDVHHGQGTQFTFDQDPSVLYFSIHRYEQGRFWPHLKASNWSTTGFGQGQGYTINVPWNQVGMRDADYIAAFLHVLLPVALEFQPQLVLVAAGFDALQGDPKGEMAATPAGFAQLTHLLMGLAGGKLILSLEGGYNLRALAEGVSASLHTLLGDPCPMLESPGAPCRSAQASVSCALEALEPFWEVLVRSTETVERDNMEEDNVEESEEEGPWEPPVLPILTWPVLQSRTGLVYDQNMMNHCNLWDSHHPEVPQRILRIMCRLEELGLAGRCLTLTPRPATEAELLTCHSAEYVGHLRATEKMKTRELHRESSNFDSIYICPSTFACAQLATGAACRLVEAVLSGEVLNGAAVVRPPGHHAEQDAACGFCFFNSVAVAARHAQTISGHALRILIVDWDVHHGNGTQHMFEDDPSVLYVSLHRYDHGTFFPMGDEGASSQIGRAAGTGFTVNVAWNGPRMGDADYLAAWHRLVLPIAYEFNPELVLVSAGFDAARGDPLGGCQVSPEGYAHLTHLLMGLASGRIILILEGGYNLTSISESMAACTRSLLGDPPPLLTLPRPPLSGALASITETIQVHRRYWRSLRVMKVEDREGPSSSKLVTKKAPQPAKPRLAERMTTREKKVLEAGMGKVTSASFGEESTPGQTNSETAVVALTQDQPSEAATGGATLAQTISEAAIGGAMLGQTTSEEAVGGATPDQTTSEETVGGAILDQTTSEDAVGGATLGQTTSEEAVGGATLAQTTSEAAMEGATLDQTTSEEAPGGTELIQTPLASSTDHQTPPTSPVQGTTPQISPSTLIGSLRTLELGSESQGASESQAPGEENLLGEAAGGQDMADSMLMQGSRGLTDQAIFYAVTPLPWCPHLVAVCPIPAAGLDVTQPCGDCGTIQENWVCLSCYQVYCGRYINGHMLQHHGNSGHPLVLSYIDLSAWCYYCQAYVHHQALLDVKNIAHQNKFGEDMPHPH

[3] = biological target: Histone deacetylase 1 (Homo sapiens) (UniProt Q13547); test: Inhibition of human HDAC1 at 1uM using RHKKAc as substrate by fluorescence method relative to control
Chain of Histone deacetylase 1 (Homo sapiens) (Q13547 whole entry): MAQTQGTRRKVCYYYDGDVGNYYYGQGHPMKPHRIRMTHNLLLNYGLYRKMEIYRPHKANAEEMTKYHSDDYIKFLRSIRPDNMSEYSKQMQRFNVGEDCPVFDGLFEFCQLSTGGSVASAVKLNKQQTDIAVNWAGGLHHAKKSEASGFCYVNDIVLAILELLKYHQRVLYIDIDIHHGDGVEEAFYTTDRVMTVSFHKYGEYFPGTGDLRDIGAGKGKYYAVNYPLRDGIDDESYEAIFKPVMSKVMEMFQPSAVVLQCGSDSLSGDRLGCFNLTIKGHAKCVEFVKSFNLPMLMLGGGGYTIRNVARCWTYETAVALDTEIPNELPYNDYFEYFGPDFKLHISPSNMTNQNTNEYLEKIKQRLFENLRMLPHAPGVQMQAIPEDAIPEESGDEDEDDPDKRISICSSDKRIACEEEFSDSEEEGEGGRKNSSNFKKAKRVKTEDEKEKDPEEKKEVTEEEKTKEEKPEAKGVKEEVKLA

[4] = Stability in human liver microsomes assessed as parent compound remaining measured after 30 mins; assay type: ADME, Microsome; conditions: liver microsomes, read-out: Stabilty
[5] = Stability in mouse liver microsomes assessed as parent compound remaining measured after 30 mins; assay type: ADME, Microsome; conditions: liver microsomes, read-out: Stabilty
MM1.S [6] = test: Antiproliferative activity against human MM1.S cells assessed as reduction in cell viability after 144 hrs; assay type: functional, cell-based
MM1.S [7] = test: Antitumour activity against human MM1.S cells xenografted in SCID mouse assessed as tumour growth inhibition at 25 mg/kg, po for 12 days relative to control; assay type: functional; conditions: 288 h, time 12 day, read-out: TGI
MM1.S [8] = test: Antitumour activity against human MM1.S cells xenografted in SCID mouse assessed as tumour growth inhibition at 50 mg/kg, […] for 12 days relative to control; assay type: functional; conditions: 288 h, time 12 day, read-out: TGI
[9] = biological target: T1, Lysine-specific histone demethylase 1A; test: Inhibition of LSD1 in human MM1.S cells assessed as modulation of p21 mRNA expression at 0.5 uM after 6 to 24 hrs by qRT-PCR analysis; assay type: cell-based; conditions: time lower 6.0 hrs, time upper […]
[10] = biological target: T1, Lysine-specific histone demethylase 1A; test: Inhibition of LSD1 in human MM1.S cells assessed as modulation of c-Myc mRNA expression at 0.5 uM after 6 to 24 hrs by qRT-PCR analysis; assay type: cell-based; conditions: time lower 6.0 hrs, time upper […]
[11] = biological target: T1, Lysine-specific histone demethylase 1A; test: Inhibition of LSD1 in human MM1.S cells assessed as modulation alpha-tubulin acetylation at 100 to 500 nM after 1 to 3 hrs by Western blot analysis; assay type: cell-based; conditions: dose 100-500 nM, time 1-3 hrs
[12] = biological target: T3, Protein deacetylase HDAC6 (Homo sapiens) (UniProt Q9UBN7); test: Inhibition of HDAC6 in human MM1.S cells assessed as modulation of p21 mRNA expression at 0.5 uM after 6 to 24 hrs by qRT-PCR analysis; assay type: cell-based; conditions: time lower 6.0 hrs, time upper […]
T3 sequence (whole entry): T2 sequence (Q9UBN7 whole entry)

[13] = biological target: T3, Protein deacetylase HDAC6 (Homo sapiens); test: Inhibition of HDAC6 in human MM1.S cells assessed as modulation of c-Myc mRNA expression at 0.5 uM after 6 to 24 hrs by qRT-PCR analysis; assay type: cell-based; conditions: time lower 6.0 hrs, time upper […]
[14] = biological target: T3, Protein deacetylase HDAC6 (Homo sapiens); test: Inhibition of HDAC6 in human MM1.S cells assessed as modulation alpha-tubulin acetylation at 100 to 500 nM after 1 to 3 hrs by Western blot analysis; assay type: cell-based; conditions: dose 100-500 nM, time 1-3 hrs

SMILES | IC50 ([1]; read-out: IC50) [nM] | IC50 [2] [nM] | inhibition [3] [%] | remaining at 0.5 h [4] [%] | remaining at 0.5 h [5] [%] | EC50 (MM1.S [6]) [nM] | further results
O=C(NO)c1ccc(CCCN2CCC(CN[C@H]3C[C@@H]3c3ccc(-c4ccc(Cl)cc4)cc3)CC2)cc1 (racemic) | 2 | 19 | 23.6 | 77 | 81 |  | 
O=C(NO)c1ccc(CCCN2CC(CN[C@H]3C[C@@H]3c3ccccc3)C2)cc1 (racemic) | 29 | 184 | 0.7 | 84 | < 5 | 25 | 
O=C(NO)c1ccc(CCCN2CCC(CN[C@H]3C[C@@H]3c3ccccc3)CC2)cc1 [listing 1 of 2 here] |  |  | 2.06 |  |  |  | 
O=C(NO)c1ccc(CCCN2CCC(CN[C@H]3C[C@@H]3c3ccc(OCc4ccc(F)cc4)cc3)CC2)cc1 (racemic) | 4 | 12 | -1.79 | 79 | 56 |  | 
O=C(NO)c1cnc(CCCN2CCC(CN[C@H]3C[C@@H]3c3ccccc3)CC2)s1 (racemic) | 22 | 517 | 10.7 | 90 | 87 | 63 | 
O=C(NO)c1ccc(CN2CCC(CN[C@H]3C[C@@H]3c3ccccc3)CC2)cc1 (racemic) |  |  | 12.9 | 63 | 53 |  | 
O=C(NO)c1ccc(CCCN2CCC(CN[C@H]3C[C@@H]3c3ccc(C(=O)N4CCOCC4)cc3)CC2)cc1 (racemic) | 22 |  | 47.6 | 89 | 82 |  | 
O=C(O)c1ccc(CN2CCC(CN[C@@H]3C[C@H]3c3ccccc3)CC2)cc1 [GSK2879552] |  |  |  |  |  |  | inhibition in vivo at 25 mg/kg (MM1.S [7]): 40%
O=C(NO)c1csc(CCCN2CCC(CN[C@H]3C[C@@H]3c3ccccc3)CC2)n1 (racemic) | 26 | > 10000 | -0.22 | 88 | 95 | > 10000 | 
O=C(CCCCCCNC(=O)c1cnc(N(c2ccccc2)c2ccccc2)nc1)NO [RICOLINOSTAT] |  |  |  | 93 | 77 | 0.85 | IC50 [1]: Not Active; inhibition in vivo at 50 mg/kg (MM1.S [8]): 36%
COc1ccc([C@H]2C[C@@H]2NCc2cn3c(n2)CN(CCCc2ccc(C(=O)NO)cc2)CC3)cc1 (racemic) | 1100 | 28 | 26.6 | 73 | < 5 |  | 
O=C(NO)c1ccc(CCCN2CCC(CN[C@H]3C[C@@H]3c3ccc(C(=O)N4CCCCC4)cc3)CC2)cc1 (racemic) | 23 |  | 53.9 | 65 | 72 |  | 
CN(C)CCNC(=O)c1ccc([C@H]2C[C@@H]2NCC2CCN(CCCc3ccc(C(=O)NO)cc3)CC2)cc1 (racemic) | 22 | 130 | 58.1 | 40 | 36 |  | 
O=C(NO)c1ccc(CCCN2CCc3cc(CN[C@H]4C[C@@H]4c4ccc(F)cc4)ccc3C2)cc1 (racemic) |  |  |  | 72 | 32 |  | 
O=C(NO)c1coc(CCCN2CCC(CN[C@H]3C[C@@H]3c3ccccc3)CC2)n1 (racemic) | 26 | > 10000 | 6.85 | 78 | 76 | > 10000 | 
O=C(NO)c1ccc(CCCN2CCC(CN[C@@H]3C[C@H]3c3ccccc3)CC2)cc1 |  |  | 57.6 | 38 | 26 | 3 | 
O=C(NO)c1ccc(CCN2CCC(CN[C@H]3C[C@@H]3c3ccccc3)CC2)cc1 (racemic) | 15 | 490 | 50.7 | 77 | 68 | 28 | 
Cc1noc(C)c1-c1ccc([C@H]2C[C@@H]2NCC2CCN(CCCc3ccc(C(=O)NO)cc3)CC2)cc1 (racemic) | 59 | 58 | 35.4 | 82 | 77 | 11 | 
Cn1ccc(-c2ccc([C@H]3C[C@@H]3NCC3CCN(CCCc4ccc(C(=O)NO)cc4)CC3)cc2)cc1=O (racemic) | 21 | 46 | 59.4 | 73 | 72 |  | 
Cn1cc(-c2ccc([C@H]3C[C@@H]3NCC3CCN(CCCc4ccc(C(=O)NO)cc4)CC3)cc2)cn1 (racemic) | 43 | 66 | 41.6 | 77 | 66 | 7 | 
O=C(O)c1ccc(CCCN2CCC(CN[C@H]3C[C@@H]3c3ccccc3)CC2)cc1 (racemic) |  | > 10000 | 8.36 | 63 | 80 | > 10000 | 
N#Cc1ccc(-c2ccc([C@H]3C[C@@H]3NCC3CCN(CCCc4ccc(C(=O)NO)cc4)CC3)cc2)cc1 (racemic) | 32 |  |  | 76 | 75 |  | 
O=C(NO)c1ccc(CCCN2CCC(CN[C@H]3C[C@@H]3c3ccc(-c4ccc(C(F)(F)F)nc4)cc3)CC2)cc1 (racemic) | 19 | 100 | 33.5 | 79 | 85 |  | 
O=C(NO)c1ccc(CCCN2CCC(CN[C@H]3C[C@@H]3c3ccccc3)CC2)cc1 [listing 2 of 2 here] |  |  |  | 51 | 50 | 4 | 
O=C(NO)c1ccc(CCCN2CCC(CN[C@H]3C[C@@H]3c3ccc(-c4ccc(F)cc4)cc3)CC2)cc1 (racemic) | 821 | 59 | 9.74 | 92 | 75 |  | 
O=C(NO)c1ccc(CCCN2CCC(CN[C@H]3C[C@@H]3c3ccccc3)CC2)cc1 (racemic) |  |  | 18.4 |  |  |  | inhibition [9]: Active; inhibition [10]: Active; inhibition [11]: Active; inhibition [12]: Active; inhibition [13]: Active; inhibition [14]: Active
CN(CC1CCN(CCCc2ccc(C(=O)NO)cc2)CC1)[C@H]1C[C@@H]1c1ccccc1 (racemic) | 465 |  | 8.37 |  |  | 48 | 
O=C(NO)c1ccc(CCCN2CCC(CN[C@H]3C[C@@H]3c3ccc(F)cc3)CC2)cc1 (racemic) | 6 | 51 | 12.7 | 54 | 66 |  | 
COc1ccc([C@H]2C[C@@H]2NCC2CCN(CCCc3ccc(C(=O)NO)cc3)CC2)cc1 (racemic) | 6 | 38 | 46.7 | 74 | 91 |  | 
